Measurements taken from patent US8361970B2, “Growth factor binding molecules” (University of South Florida, priority 2000, dated 2013).
Where “and” joins values, the source holds several entries; their conditions need not be identical. Equal values may be shown once. Read-outs that look alike come from different tables or passages of the source.

Columns and labels:
Type in all cases: cell-based
[1] = test system: PDGF-stimulated Erk1/Erk2 activation; assay: Inhibition of PDGF-stimulated activation of MAPK Erk1/Erk2 (p44/p42) in NIH 3T3 cells; settings: NIH 3T3, PDGF stimulated
Method: (§1) Starved NIII 3T3 cells (PDGF-BB and PDGF-AA), NIH 3T3 cells overexpressing either EGFR (EGF) or Flk-1 (VEGF) are pre-treated with the indicated concentrations of GFB-111 for 5 minutes before 10 minutes of stimulation with PDGF-BB (10 ng/ml), PDGF-AA (10 ng/ml), EGF (100 ng/ml) and VEGF (50 ng/ml). Cell lysates are run on SDS-PAGE gels, then transferred to nitrocellulose and Western blotted with anti-phosphotyrosine (4G 10) or anti-phosphorylated Erk1/Erk2 (New England Biolabs).
(§2) In other experiments, starved NIH 3T3 cells (PDGF-AA, PDGF-BB, aFGF, bFGF), NIH 3T3 cells overexpressing EGFR. IGF-1R or Flk-1 and the human breast carcinoma SkBr3 that overexpresses ErbB2 (HRGβ) are pretreated with GFB-111 (100 μM) for 5 min before 10 min stimulation with the indicated growth factors at the concentrations shown above and aFGF (10 ng/ml), bFGF (50 ng/ml), IGF-1 (50 ng/ml) and HRGβ (10 ng/ml). Cell lysates are then immunoblotted with anti-phospho Erk1/Erk2 as described above.

[2] = test system: aFGF-stimulated MAP kinase activation of p42 and p44; assay: Inhibition of aFGF stimulation of p42/p44 MAP kinase in NIH 3T3 cells; settings: NIH 3T3
Method: as §2
The ability of growth factor binding agents in the library of growth factor binding agents to block an aFGF signal is measured by aFGF-stimulation of MAP kinase activation of p42 and p44 essentially as described above for VEGF. NIH 3T3 cells are used as the target cell. […] A preferred embodiment of the invention is a compound that binds to acidic fibroblast growth factor, of the general structure III, in which R is n-butyl, n-propyl, or benzyl, and X1, X2, X3, and X4 optionally comprise covalently attached cyclic peptide loops of the general structure II, wherein R1, R2, R3, and R4 are each amino acid side chains that define a tetrapeptide sequence, wherein said tetrapeptide is covalently attached at the amino and carboxy termini of said tetrapeptide to a 3-aminomethyl-5-aminobenzamide linking group, and wherein said tetrapeptide sequence is as given, for example, in Table 5.

[3] = test system: PDGF-stimulated PDGFR tyrosine phosphorylation; assay: Inhibition of PDGF-stimulated PDGFR tyrosine phosphorylation in NIH 3T3 cells (anti-phosphotyrosine Western blot); settings: 5 min pretreatment, PDGF 10 ng/ml 10 min, read-out: (IC50) Inhibition PDGFR-Y-P
Method: Starved NIH 3T3 cells are pretreated with various growth factor binding agents (0-100 μM) for 5 min before stimulation with PDGF (10 ng/mL) for 10 min. The cells are then harvested and lysed, and the proteins from the lysates separated by SDS-PAGE and immunoblotted with an anti-phosphotyrosine antibody (4G10: Upstate Biotechnology, Lake Placid, N.Y.). The phosphotyrosine PDGF receptor bands are scanned, and the concentrations of growth factor binding molecules that inhibited the ability of PDGF to stimulate PDGFR tyrosine phosphorylation by 50% are determined.
as §1
A novel series of protein surface binding agents are prepared that bind PDGF and disrupt its signaling function. The molecules are composed of a central calix[4] arene scaffold to which is attached four peptide loop domains (FIG. 1). The peptide loop component is based on a cyclic hexapeptide in which two residues are replaced by a 3-aminomethylbenzoate dipeptide mimetic containing a 5-amino substituent for attachment to the scaffold. The resulting molecules (as shown in Table 1) contain a functionalized and variable surface approximately 500 Å^2 in area. Several peptide loop sequences are synthesized (Table 1) to provide molecular surfaces with negatively and positively charged as well as hydrophobic regions designed to bind to complementary areas on the target growth factor. To identify PDGF binding molecules from this library, a cell-based screening assay is developed with NIH 3T3 cells to detect molecules capable of blocking PDGF-BB-induced tyrosine autophosphorylation of the PDGF receptor. The ability of the identified molecules to bind PDGF-BB and inhibit interaction with its receptor is then confirmed biochemically. Starved NIH 3T3 cells are pretreated for 5 min with the synthetic molecules prior to stimulation with PDGF for 10 min. The effects of the molecules on PDGF-stimulated receptor tyrosine phosphorylation are determined by the antiphosphotyrosine Western blotting as described in Table 1. […] GFB-111 has four-fold symmetry containing 4 identical peptide loops with negative and hydrophobic residues, GlyAspGlyTyr (GDGY) (SEQ ID NO. 6), that are designed to be complementary to the PDGF surface involved in binding to PDGFR. The area of PDGF-BB that binds PDGFR is composed primarily of positive and hydrophobic residues.
Starved NIH 3T3 cells are pretreated with the various GFBs (0-100 μM) for 5 min. prior to stimulation with PDGF (10 ng/ml) for 10 min. The cells are then harvested lysed and the proteins from the lysates are separated by SDS-PAGE and immunoblotted with an anti-phosphotyrosine antibody (4G10, Upstate Biotechnology, Lake Placid, N.Y.). The phosphotyrosine PDGF receptor bands are scanned and the concentrations of GFBs that inhibit the ability of PDGF to stimulate PDGFR tyrosine phosphorylation by 50% are determined. Data for each compound is representative of at least two independent experiments. FIG. 1 illustrates the structure of growth factor binders. GFBs are synthesized as described by Park, H. D. et al., Protein surface recognition by synthetic receptors: A route to novel sub-micromolar inhibitors for chymotrypsin. J. Am. Chem. Soc. 121, 8-13 (1999); and Hamuro, Y. et al., A calixarene with four peptide loops: An antibody mimic for recognition of protein surfaces. Angew. Chemie Int. Ed. Engl. 36, 2680-2683 (1997), each herein incorporated by reference in its respective entirety.

[4] = test system: VEGF-stimulated MAP kinase activation; assay: Inhibition of VEGF-stimulated MAP kinase (p42/p44, Erk2/Erk1) activation in Flk-1/3T3 cells; settings: Flk-1/3T3, VEGF stimulated
Method: as §1, §2
(§3) In order to identify molecules that would bind vascular endothelial growth factor (VEGF), Flk-1/3T3 cell-based assay is used that relies on VEGF-stimulation of its receptor, Flk-1, tyrosine phosphorylation and subsequent MAP-kinase activation. The assay used herein identical to that used for PDGF, except that NIH 3T3 cells that overexpress Flk-1 are used. GFB-116, which has four identical loops with the sequence GKGK (SEQ ID NO. 10) is shown to be very potent and selective toward blocking the ability of VEGF to stimulate Flk-1 tyrosine phosphorylation and subsequent MAP-kinase activation as measured by phospho erk-1 and erk-2 also referred to in the Table as p42 and p44 (Table 4A). A preferred embodiment of the invention is a compound that binds to a vascular endothelial growth factor, of the general structure III (above) in which R is n-butyl, n-propyl, or benzyl, and X comprise covalently attached identical cyclic peptide loops wherein R1, R2, R3, and R4 are each amino acid side chains, as broadly defined above, that define a tetrapeptide sequence, wherein said tetrapeptide is covalently attached at the amino and carboxy termini of said tetrapeptide to 3-aminomethyl-5-aminobenzamide linking group, and wherein said tetrapeptide sequence is GKGK (SEQ ID NO. 10), GDGY (SEQ ID NO. 6), or functionally related derivatives thereof.

[5] = test system: IGF-1 stimulated MAP kinase activation; assay: Inhibition of IGF-1 stimulated MAP kinase (p42/p44) activation in IGFR/3T3 cells; settings: 100 μM; IGFR/3T3, IGF-1 stimulated
Method: as §2
(§4) The ability of the GFB library to block the ability of IGF-1 to stimulate the IFG-1 R tyrosine phosphorylation and MAP kinase activation is evaluated using the cell assay described above with IGF-1R/3T3 cells as target cell. […] A preferred embodiment of the invention is a compound that binds to an insulin-like growth factor-1, of the general structure III, wherein R is n-butyl, n-propyl, or benzyl, and X1, X2, X3, and X4 optionally comprise identical cyclic peptide loops of the general structure II, and wherein R1, R2, R3, and R4 are each amino acid side chains that define a tetrapeptide sequence, wherein said tetrapeptide is covalently attached at the amino and carboxy termini of said tetrapeptide to a 3-aminomethyl-5-aminobenzamide linking group.

[6] = test system: VEGF-stimulated Flk-1 tyrosine phosphorylation; assay: Inhibition of VEGF-stimulated Flk-1 tyrosine phosphorylation in Flk-1/3T3 cells; settings: Flk-1/3T3, VEGF stimulated; read-out: (IC50) Inhibition Flk-1-Y-P
Method: as §1, §3

[7] = test system: IGF-1 stimulated IGF-1R tyrosine phosphorylation; assay: Inhibition of IGF-1 stimulated IGFR tyrosine phosphorylation in IGFR/3T3 cells; settings: for % Inhibition at 100 μM IGF1R-Y-P: IGFR/3T3, IGF-1 stimulated
Method: as §4

[8] = test system: EGF-stimulated EGFR tyrosine phosphorylation and Erk1/Erk2 activation; assay: EGF-stimulated EGFR tyrosine phosphorylation and Erk1/Erk2 activation in NIH 3T3 cells overexpressing EGFR; settings: GFB-111 at concentrations as high as 100 μM
Method: as §1

[9] = head p42/Erk2 (p42 for GFB-132 to 137), read-out: (IC50) Inhibition p42/Erk2
[10] = read-out: (IC50) Inhibition p44
[11] = read-out: (IC50) Inhibition p42

| Compound | IC50 [1, 9] | IC50 [1, 10] | IC50 [3] | IC50 [4, 11] | IC50 [4, 10] | IC50 [6] | Block of aFGF-stimulation of MAP kinase activation of p42 and p44 [2] | % Inhibition at 100 μM p42 [5] | % Inhibition at 100 μM p44 [5] | % Inhibition at 100 μM IGF1R-Y-P [7] | Effect on EGF-stimulated EGFR tyrosine phosphorylation and Erk1/Erk2 activation [8] | Blocking IGF-1 action ([7]; IGF-1R/3T3 cells) |
| --- | --- | --- | --- | --- | --- | --- | --- | --- | --- | --- | --- | --- |
| GDSD [GFB-113] | 30 µM | – | 2.8 µM | 10 µM | 10 µM | < 10 µM | – | −31.4% | 18.7% | −18.9% | – | – |
| CNc1cc2c(Nc3cccc(Br)c3)ncnc2cn1 [PD158780, reference compound] | – | – | – | – | – | – | – | – | – | – | blocks | – |
| ADGD [GFB-112] | 26 µM | – | 29 µM | 10 µM | 10 µM | < 10 µM | – | −7.6% | 30.4% | 0.6% | – | – |
| GDDG [GFB-127] | > 50 µM | – | 32 µM | – | – | – | very effective | 38.4% and 27.2% | 61.6% and 74.4% | 36.8% and 31.8% | – | – |

The remaining compounds from weak to strong by IC50 [1, 9], led by results:

| IC50 [1, 9] | IC50 [1, 10] | IC50 [3] | IC50 [4, 11] | IC50 [4, 10] | IC50 [6] | Compound | Block of aFGF-stimulation of MAP kinase activation of p42 and p44 [2] | % Inhibition at 100 μM p42 [5] | % Inhibition at 100 μM p44 [5] | % Inhibition at 100 μM IGF1R-Y-P [7] | Effect on EGF-stimulated EGFR tyrosine phosphorylation and Erk1/Erk2 activation [8] | Blocking IGF-1 action ([7]; IGF-1R/3T3 cells) |
| --- | --- | --- | --- | --- | --- | --- | --- | --- | --- | --- | --- | --- |
| 33 µM | – | 8 µM | < 10 µM | < 10 µM | < 10 µM | GDDD [GFB-106] | very effective | – | – | – | – | – |
| 28 µM | – | 2.4 µM | > 100 µM | > 100 µM | < 10 µM | GDFD [GFB-105] | – | – | – | 1.3% | – | – |
| 4.6 µM | – | 1.9 µM | – | – | – | GDDG [GFB-126] | very effective | 63.9% and 47.0% | 71.2% and 79.2% | 51.7% and 51.0% | – | particularly effective |
| 3.2 µM | 3 µM | 0.8 µM | – | – | – | GDGY [GFB-133] | very effective | – | – | – | – | – |
